Legend:
[1] = target: T1, Adenosine deaminase (Bos taurus, UniProt P56658); test: Inhibition of Calf intestinal adenosine deaminase (ADA).
T1 sequence (P56658 whole entry): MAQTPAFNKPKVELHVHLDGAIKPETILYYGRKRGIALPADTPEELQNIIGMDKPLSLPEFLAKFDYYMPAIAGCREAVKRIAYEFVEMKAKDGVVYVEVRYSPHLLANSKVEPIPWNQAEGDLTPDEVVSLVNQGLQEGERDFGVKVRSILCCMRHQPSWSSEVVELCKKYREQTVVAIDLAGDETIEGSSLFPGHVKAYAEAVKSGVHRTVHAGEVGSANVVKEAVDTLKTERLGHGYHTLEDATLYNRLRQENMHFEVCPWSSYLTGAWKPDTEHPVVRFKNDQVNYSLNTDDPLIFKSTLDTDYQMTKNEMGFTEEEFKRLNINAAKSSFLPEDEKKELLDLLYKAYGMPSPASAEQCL

[2] = target: T2, AMP deaminase 3 (Homo sapiens, UniProt Q01432); test: Inhibition of recombinant human E-type adenylate deaminase
T2 sequence (Q01432 whole entry): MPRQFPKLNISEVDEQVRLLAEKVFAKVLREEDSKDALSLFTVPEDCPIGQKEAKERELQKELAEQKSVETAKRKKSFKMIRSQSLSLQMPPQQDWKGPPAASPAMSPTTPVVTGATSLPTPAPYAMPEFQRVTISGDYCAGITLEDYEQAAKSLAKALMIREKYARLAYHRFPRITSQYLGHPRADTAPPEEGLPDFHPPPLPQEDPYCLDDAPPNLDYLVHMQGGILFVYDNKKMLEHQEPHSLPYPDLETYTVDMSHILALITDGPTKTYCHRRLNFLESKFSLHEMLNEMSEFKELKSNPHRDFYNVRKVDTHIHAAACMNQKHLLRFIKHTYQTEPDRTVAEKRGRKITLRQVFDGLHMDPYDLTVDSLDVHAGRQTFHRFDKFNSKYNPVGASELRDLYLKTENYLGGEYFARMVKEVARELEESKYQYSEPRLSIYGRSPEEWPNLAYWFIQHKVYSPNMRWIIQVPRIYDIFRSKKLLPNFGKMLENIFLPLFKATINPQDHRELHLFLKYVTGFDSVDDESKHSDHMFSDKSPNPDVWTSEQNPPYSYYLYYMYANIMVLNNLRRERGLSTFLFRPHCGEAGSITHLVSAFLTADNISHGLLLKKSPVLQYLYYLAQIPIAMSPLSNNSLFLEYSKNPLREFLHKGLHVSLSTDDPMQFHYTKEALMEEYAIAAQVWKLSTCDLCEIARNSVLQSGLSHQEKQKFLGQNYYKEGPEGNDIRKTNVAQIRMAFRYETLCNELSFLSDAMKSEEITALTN

| Compound | Ki [1] [µM] | Ki [2] [nM] |
| --- | --- | --- |
| O=C(O)c1cc(CCn2cnc3c2N=CNCC3O)c2cccc(C(F)(F)F)c2c1 (configuration not stated) | > 7.5 | 220 |
| O=C(O)c1cc(CCn2cnc3c2NC=NCC3O)c2ccccc2c1 (configuration not stated) | > 1000 | 20 |
| O=C(O)c1cc(CCn2cnc3c2N=CNCC3O)c2cc(Br)ccc2c1 (configuration not stated) | > 7.5 | 960 |
| O=C(OCc1ccccc1)c1cc2c(c(CCn3cnc4c3N=CNCC4O)c1)CCCC2 (configuration not stated) | 0.72 | 5000 |
| O=C(O)c1cc(CCn2cnc3c2N=CNCC3O)c2c(c1OCc1ccccc1)CCCC2 (configuration not stated) | > 7.5 | 9 |
| O=C(O)C(CCCCn1cnc2c1NC=NCC2O)Cc1ccccc1 (configuration not stated) | – | 410 |
| OC[C@H]1O[C@@H](n2cnc3c2N=CNC[C@H]3O)[C@H](O)[C@@H]1O [COFORMYCIN] | – | 3000 |
| O=C(O)c1cccc(CCn2cnc3c2N=CNCC3O)c1 (configuration not stated) | – | 500 |
| CCOC(=O)c1cc(CCn2cnc3c2N=CNCC3O)c2cc(Br)ccc2c1 (configuration not stated) | 4.4 | 14000 |
| CCOC(=O)c1cc(CCn2cnc3c2N=CNCC3O)c2cccc(C(F)(F)F)c2c1 (configuration not stated) | 2.7 | 35000 |
| O=C(O)c1c(Cl)c2c(c(CCn3cnc4c3N=CNCC4O)c1Cl)CCCC2 (configuration not stated) | > 7.5 | 50 |

The remaining lines, values ahead:

| Ki [1] [µM] | Ki [2] [nM] | Compound |
| --- | --- | --- |
| > 7.5 | 1800 | COC(=O)c1cc(CCn2cnc3c2NC=NCC3O)c2ccccc2c1 (configuration not stated) |
| > 7.5 | 500 | CCOC(=O)c1c(Cl)c2c(c(CCn3cnc4c3NC=NCC4O)c1Cl)CCCC2 (configuration not stated) |
| > 7.5 | 30 | COc1c(C(=O)O)cc(CCn2cnc3c2NC=NCC3O)c2c1CCCC2 (configuration not stated) |
| > 7.5 | 2 | O=C(O)c1cc(CCn2cnc3c2N=CNCC3O)c2c(c1Br)CCCC2 (configuration not stated) |
| > 7.5 | 2400 | CCOC(=O)c1cc2c(c(CCn3cnc4c3N=CNCC4O)c1OC)CCCC2 (configuration not stated) |
| 3.7 | 2300 | CCOC(=O)c1cc(CCn2cnc3c2NC=NCC3O)c2c(c1OC)CCCC2 (configuration not stated) |
| > 7.5 | 40 | COc1c(C(=O)O)cc2c(c1CCn1cnc3c1NC=NCC3O)CCCC2 (configuration not stated) |
| > 7.5 | 90 | CC(C)Oc1c(C(=O)O)cc(CCn2cnc3c2N=CNCC3O)c2c1CCCC2 (configuration not stated) |
| 3.4 | 1300 | CCOC(=O)c1cc2c(c(CCn3cnc4c3N=CNCC4O)c1)CCCC2 (configuration not stated) |
| > 7.5 | 15 | O=C(O)c1cc2c(c(CCn3cnc4c3NC=NCC4O)c1)CCCC2 (configuration not stated) |
| 0.53 | 1000 | CCOC(=O)c1cc(CCn2cnc3c2NC=NCC3O)c2c(c1Br)CCCC2 (configuration not stated) |
| > 7.5 | 300 | O=C(OCc1ccccc1)c1c(Cl)c2c(c(CCn3cnc4c3NC=NCC4O)c1Cl)CCCC2 (configuration not stated) |
| > 7.5 | 3800 | CCOC(=O)c1cc(CCn2cnc3c2NC=NCC3O)c2c(c1OC(C)C)CCCC2 (configuration not stated) |
| > 7.5 | 300 | CCOC(=O)c1cc(CCn2cnc3c2NC=NCC3O)c2c(c1OCc1ccccc1)CCCC2 (configuration not stated) |

— ChEMBL document CHEMBL1134349, “AMP deaminase inhibitors. 5. Design, synthesis, and SAR of a highly potent inhibitor series” (J Med Chem, 2001)
